Measurements from ChEMBL document CHEMBL5465560, “Selectivity Literature for EUbOPEN Chemogenomic Library” (2024).

Legend:
[1] = target: Protein kinase C beta type (Homo sapiens, UniProt P05771); assay: Selectivity interaction (Millipore kinase profiler) EUB0000124b PRKCB; conditions: at 10 µM
[2] = target: Tyrosine-protein kinase HCK (Homo sapiens) (UniProt P08631); assay: Selectivity interaction (KinomeScan (DiscoverX)) EUB0000229b HCK; conditions: at 10 µM
[3] = target: MAP/microtubule affinity-regulating kinase 3 (Homo sapiens) (UniProt P27448); assay: Selectivity interaction (KinomeScan (DiscoverX)) EUB0001079a MARK3; conditions: at 1 µM
[4] = target: T1, Serine/threonine-protein kinase Nek1 (Homo sapiens) (UniProt Q96PY6); assay: Selectivity interaction (KinomeScan (DiscoverX)) EUB0001079a NEK1; conditions: at 1 µM
T1 sequence (whole entry): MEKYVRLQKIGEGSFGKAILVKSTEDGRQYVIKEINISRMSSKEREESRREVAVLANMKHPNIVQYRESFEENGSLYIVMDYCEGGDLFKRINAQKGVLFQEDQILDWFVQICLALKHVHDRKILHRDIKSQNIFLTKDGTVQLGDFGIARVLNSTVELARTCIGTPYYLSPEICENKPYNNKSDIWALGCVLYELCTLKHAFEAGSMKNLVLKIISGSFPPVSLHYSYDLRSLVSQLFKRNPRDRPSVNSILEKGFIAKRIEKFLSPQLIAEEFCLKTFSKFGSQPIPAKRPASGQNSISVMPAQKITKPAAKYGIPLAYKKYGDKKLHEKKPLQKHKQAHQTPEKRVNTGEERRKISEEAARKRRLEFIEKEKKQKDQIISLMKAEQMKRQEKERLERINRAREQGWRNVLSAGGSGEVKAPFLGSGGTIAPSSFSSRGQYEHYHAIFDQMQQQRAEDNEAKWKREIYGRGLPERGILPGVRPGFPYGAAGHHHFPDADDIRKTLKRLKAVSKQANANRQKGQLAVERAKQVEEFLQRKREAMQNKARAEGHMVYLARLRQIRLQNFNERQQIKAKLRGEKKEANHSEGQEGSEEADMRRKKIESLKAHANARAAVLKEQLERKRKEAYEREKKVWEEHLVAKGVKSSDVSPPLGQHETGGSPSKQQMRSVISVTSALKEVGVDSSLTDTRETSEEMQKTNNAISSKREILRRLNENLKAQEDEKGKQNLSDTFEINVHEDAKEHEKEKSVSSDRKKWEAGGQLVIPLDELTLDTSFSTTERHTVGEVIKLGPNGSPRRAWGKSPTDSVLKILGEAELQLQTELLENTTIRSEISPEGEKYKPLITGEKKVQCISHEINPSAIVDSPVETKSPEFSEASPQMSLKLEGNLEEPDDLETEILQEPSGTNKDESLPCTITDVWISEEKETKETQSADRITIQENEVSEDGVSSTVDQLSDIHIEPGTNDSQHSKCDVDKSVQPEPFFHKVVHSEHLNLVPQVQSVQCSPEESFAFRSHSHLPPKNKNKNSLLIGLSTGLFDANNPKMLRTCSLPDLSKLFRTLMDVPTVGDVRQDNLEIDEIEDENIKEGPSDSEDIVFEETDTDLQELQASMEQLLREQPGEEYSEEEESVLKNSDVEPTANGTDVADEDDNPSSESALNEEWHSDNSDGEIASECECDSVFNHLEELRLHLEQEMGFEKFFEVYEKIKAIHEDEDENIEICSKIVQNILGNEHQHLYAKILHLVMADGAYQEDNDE

[5] = target: Tyrosine-protein kinase ABL2 (Homo sapiens, UniProt P42684); assay: Selectivity interaction (ActivX KiNativ screen (kinase selectivity in THP-1 cell lysates)) EUB0000639a ABL2; assay type: subcellular; conditions: lysate, at 0.2 µM
[6] = target: Serine/threonine-protein kinase pim-1 (Homo sapiens, UniProt P11309); assay: Selectivity interaction (KinomeScan (DiscoverX)) EUB0000045b PIM1
[7] = target: T2, Serine/threonine-protein kinase ULK1 (Homo sapiens) (UniProt O75385); assay: Selectivity interaction (KinomeScan (DiscoverX)) EUB0000045b ULK1
T2 sequence (whole entry): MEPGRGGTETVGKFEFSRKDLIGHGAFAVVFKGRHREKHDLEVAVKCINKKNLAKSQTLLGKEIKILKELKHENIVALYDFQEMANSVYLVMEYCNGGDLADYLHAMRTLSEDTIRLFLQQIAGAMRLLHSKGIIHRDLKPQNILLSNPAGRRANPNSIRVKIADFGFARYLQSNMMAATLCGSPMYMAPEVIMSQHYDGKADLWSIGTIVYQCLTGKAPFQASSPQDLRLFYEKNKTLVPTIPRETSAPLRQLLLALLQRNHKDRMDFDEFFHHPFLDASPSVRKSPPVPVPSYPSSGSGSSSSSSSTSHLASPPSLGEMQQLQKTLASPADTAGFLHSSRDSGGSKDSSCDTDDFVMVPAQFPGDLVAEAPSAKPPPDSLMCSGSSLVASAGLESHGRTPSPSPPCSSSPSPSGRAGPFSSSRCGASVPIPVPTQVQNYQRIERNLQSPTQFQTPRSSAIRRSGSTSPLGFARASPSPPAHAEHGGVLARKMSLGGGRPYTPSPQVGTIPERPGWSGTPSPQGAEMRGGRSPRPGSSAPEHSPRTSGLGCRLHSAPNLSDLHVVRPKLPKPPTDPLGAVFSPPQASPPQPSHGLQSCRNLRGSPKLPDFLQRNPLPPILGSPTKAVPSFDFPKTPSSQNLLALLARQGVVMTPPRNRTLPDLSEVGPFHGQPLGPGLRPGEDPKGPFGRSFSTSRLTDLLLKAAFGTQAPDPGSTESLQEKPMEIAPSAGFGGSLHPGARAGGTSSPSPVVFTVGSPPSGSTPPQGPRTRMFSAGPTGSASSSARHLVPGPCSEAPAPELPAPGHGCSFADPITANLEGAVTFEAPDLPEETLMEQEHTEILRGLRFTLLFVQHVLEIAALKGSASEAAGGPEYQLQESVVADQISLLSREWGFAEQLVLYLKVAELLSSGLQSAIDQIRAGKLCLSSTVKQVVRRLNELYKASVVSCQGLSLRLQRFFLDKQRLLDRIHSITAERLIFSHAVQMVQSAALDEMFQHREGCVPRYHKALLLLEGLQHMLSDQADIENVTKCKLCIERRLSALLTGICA

[8] = target: Tyrosine-protein kinase Fyn (Homo sapiens) (UniProt P06241); assay: Selectivity interaction (KinomeScan (DiscoverX)) EUB0000655a FYN; conditions: at 10 µM
[9] = target: Calcium/calmodulin-dependent protein kinase kinase 1 (Homo sapiens) (UniProt Q8N5S9); assay: Selectivity interaction (ProQinase) EUB0000171b CAMKK1
Calcium/calmodulin-dependent protein kinase kinase 1 (Homo sapiens), sequence (Q8N5S9 whole entry, looked up): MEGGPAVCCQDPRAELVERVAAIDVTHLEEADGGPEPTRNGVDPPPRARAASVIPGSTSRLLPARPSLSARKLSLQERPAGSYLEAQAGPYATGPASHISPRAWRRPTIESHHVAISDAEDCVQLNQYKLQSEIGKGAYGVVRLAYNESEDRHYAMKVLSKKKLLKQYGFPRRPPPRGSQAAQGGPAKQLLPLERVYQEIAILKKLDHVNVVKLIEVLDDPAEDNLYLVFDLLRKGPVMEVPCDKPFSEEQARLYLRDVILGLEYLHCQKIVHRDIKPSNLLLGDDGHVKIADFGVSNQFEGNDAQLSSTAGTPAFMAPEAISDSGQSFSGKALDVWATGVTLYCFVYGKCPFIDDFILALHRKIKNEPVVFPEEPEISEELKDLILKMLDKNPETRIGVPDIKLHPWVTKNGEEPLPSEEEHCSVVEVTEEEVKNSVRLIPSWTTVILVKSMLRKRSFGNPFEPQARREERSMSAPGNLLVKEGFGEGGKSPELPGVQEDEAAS

Serine/threonine-protein kinase pim-1, sequence (P11309 whole entry, looked up): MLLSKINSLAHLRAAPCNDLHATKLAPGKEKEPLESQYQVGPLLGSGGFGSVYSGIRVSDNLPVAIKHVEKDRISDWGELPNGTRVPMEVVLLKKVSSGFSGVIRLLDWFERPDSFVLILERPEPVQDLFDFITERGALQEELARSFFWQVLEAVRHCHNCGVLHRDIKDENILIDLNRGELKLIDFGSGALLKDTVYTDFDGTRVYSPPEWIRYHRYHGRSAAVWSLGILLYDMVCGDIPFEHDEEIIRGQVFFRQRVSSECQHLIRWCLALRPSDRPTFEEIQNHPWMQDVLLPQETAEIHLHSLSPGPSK
Tyrosine-protein kinase HCK (Homo sapiens), sequence (P08631 2-526 limits assumed): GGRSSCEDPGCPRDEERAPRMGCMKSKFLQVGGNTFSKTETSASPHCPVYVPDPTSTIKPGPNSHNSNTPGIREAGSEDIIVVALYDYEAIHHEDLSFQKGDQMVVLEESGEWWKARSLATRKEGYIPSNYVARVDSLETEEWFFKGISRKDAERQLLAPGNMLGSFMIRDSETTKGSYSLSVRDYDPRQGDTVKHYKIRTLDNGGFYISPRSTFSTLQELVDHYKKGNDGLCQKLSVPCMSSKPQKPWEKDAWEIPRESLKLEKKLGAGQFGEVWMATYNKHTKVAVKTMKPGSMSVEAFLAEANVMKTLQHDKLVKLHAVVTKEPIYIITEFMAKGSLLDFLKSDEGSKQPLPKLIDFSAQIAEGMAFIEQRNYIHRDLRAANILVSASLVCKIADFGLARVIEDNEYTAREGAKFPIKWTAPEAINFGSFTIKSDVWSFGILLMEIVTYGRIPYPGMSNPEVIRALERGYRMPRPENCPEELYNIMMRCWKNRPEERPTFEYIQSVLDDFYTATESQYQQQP
MAP/microtubule affinity-regulating kinase 3 (Homo sapiens), sequence (P27448 whole entry, looked up): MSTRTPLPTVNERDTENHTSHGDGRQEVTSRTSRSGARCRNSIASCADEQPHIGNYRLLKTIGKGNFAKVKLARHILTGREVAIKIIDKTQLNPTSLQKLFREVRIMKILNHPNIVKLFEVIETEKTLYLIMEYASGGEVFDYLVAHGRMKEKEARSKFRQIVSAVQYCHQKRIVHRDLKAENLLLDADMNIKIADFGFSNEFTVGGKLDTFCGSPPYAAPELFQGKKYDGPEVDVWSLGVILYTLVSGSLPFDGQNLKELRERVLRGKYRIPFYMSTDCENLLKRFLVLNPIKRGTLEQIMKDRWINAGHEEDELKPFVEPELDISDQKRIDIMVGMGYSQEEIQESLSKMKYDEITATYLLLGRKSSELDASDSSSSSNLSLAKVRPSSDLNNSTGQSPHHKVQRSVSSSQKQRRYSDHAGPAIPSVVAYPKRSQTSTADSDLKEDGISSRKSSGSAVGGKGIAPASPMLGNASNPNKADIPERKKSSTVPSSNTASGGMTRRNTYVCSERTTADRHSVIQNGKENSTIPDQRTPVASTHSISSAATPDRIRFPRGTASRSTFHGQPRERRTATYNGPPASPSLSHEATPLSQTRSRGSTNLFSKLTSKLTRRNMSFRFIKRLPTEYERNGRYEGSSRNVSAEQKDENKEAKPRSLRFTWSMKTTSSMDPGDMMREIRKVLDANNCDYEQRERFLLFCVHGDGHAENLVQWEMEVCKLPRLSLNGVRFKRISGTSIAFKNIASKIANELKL
Tyrosine-protein kinase Fyn (Homo sapiens), sequence (P06241 2-537 limits assumed): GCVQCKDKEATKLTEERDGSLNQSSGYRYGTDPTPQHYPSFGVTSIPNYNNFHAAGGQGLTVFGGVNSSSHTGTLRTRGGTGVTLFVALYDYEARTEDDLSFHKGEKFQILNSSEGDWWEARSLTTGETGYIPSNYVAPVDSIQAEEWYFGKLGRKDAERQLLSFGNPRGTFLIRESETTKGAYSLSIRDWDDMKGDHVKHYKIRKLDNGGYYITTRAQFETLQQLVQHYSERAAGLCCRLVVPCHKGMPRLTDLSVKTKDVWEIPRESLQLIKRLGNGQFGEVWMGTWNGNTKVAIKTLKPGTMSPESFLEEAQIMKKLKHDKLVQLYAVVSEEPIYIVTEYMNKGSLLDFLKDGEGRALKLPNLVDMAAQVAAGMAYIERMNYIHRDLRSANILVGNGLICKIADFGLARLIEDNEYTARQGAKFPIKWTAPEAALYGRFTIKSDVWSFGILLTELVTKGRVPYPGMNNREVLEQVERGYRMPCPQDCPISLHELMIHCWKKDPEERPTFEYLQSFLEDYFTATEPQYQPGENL
Protein kinase C beta type, sequence (P05771 2-671 limits assumed): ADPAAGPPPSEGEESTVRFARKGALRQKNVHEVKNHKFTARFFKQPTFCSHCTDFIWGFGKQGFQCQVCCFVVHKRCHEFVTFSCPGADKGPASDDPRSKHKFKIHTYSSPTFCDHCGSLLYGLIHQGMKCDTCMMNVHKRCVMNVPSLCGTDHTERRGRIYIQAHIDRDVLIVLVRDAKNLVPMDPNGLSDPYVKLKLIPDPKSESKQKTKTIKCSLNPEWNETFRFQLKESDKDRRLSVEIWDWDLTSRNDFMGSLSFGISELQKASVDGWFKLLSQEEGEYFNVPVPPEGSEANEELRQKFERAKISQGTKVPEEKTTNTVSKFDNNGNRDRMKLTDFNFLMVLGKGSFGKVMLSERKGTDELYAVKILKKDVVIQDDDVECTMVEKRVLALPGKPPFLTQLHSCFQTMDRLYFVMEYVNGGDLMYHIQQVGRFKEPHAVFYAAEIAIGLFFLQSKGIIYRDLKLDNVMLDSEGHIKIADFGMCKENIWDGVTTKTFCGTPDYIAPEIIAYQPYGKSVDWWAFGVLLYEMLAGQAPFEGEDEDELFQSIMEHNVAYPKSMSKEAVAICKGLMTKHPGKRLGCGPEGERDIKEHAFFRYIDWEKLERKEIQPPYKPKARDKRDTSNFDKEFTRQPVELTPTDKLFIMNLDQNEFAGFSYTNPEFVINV
Tyrosine-protein kinase ABL2, sequence (P42684 whole entry): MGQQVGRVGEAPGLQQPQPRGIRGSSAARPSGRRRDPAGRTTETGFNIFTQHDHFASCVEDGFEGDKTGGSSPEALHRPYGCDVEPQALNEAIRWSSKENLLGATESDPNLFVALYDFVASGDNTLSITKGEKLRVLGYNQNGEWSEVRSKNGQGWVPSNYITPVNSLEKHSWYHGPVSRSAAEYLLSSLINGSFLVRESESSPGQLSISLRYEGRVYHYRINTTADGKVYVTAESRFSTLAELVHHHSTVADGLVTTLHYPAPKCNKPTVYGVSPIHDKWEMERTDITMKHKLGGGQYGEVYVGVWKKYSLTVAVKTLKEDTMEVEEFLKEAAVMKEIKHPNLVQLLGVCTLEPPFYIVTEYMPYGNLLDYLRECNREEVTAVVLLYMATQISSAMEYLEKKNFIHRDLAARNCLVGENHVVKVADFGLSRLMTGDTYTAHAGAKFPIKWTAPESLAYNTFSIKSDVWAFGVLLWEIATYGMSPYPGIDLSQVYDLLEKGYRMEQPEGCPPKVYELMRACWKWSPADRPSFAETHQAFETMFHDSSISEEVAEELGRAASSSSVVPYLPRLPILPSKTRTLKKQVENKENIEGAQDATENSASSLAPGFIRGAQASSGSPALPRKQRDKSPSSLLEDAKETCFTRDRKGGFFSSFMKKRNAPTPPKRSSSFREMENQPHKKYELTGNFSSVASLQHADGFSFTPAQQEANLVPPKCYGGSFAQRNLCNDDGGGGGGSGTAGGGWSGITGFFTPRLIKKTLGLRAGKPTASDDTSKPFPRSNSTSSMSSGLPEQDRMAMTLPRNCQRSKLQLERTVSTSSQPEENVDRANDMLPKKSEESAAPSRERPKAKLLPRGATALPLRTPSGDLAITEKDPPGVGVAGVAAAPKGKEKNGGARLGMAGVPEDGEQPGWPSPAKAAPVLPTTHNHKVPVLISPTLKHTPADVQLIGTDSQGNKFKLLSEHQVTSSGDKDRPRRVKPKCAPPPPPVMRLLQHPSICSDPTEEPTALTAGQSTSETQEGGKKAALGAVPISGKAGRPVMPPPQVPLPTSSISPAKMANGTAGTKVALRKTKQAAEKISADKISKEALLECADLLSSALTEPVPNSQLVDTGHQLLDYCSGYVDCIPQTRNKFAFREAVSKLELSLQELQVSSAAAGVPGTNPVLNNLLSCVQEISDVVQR

`CC(=O)Nc1cccc(-n2c(=O)n(C3CC3)c(=O)c3c(Nc4ccc(I)cc4F)n(C)c(=O)c(C)c32)c1` showed a % of control [1] of 108%.
With `COc1cc(N(C)c2ccnc3ccc(C(F)(F)F)cc23)cc(OC)c1OC` the % binding [2] was 100%.
`Nc1cnc(N2CCc3cc(S(=O)(=O)Nc4c(F)cc(Cl)cc4F)cc(N4CCCC4=O)c32)nc1` [TP-020n] was tested, and the % of control [3] was 100% and the % of control [4] was 46%.
With `CC[C@@H]1[C@H](F)C(=O)N[C@@H]1COc1nccc2cc(C(N)=O)c(OC)cc12` [ZIMLOVISERTIB] the % of inhibition [5] was -42.6%.
`C=CC(=O)Nc1cc(-n2c(=O)ccc3cnc4ccc(-c5ccc(NS(C)(=O)=O)cc5)cc4c32)ccc1C` was tested, and the % of control ([6]; at 1 µM) was 100%, the % of control ([6]; at 10 µM) was 86% and the % of control ([7]; at 1 µM) was 84%. For the same molecule, the % of control ([7]; at 10 µM) was 100%.
Molecule `CN(C)CCOc1ccc(-c2nc(-c3ccncc3)c(-c3ccc4c(c3)CC/C4=N\O)[nH]2)cc1` has a % of control [8] of 79%.
`C=CC(=O)Nc1cccc(C(=O)Nc2ccc(Nc3cc(-c4[nH]c(SC)nc4C)ccn3)cc2)c1` gave a % of control ([9]; at 1 µM) of 98% and a % of control ([9]; at 5 µM) of 108%.
